# Test results: ChEMBL document CHEMBL1201862, “PubChem BioAssay data set” (2004)
#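 Cells were grown in 96-well plates and exposed to each compound for 48 hours at five concentrations; endpoints were interpolated linearly between bracketing concentrations, or set to the highest concentration if not reached. At the GI50, growth is halved.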 The source made the active and inactive calls. No stated cut-off is given here; in the data, active = GI50 up to about 1.1 µM and inactive = higher.
# Assays:
# Experiment in all cases: DTP human tumour cell line panel, 48 h
# [1] = system: OVCAR-4
# [2] = system: T47D
# [3] = system: RPMI-8226
# [4] = system: HCT-116
# [5] = system: SK-OV-3
# [6] = system: SF-268
# [7] = system: OVCAR-8
# [8] = system: MOLT-4
# [9] = system: HOP-62
# [10] = system: EKVX
# [11] = system: SNB-19
# [12] = system: KM12
# [13] = system: CAKI-1
# [14] = system: HCT-15
# [15] = system: NCI-H522
# [16] = system: NCI/ADR-RES
# [17] = system: HOP-92
# [18] = system: NCI-H226
# [19] = system: SN12C
# [20] = system: UACC-62
# [21] = system: U-251
# [22] = system: A549
# [23] = system: SW-620
# [24] = system: MDA-MB-231
# [25] = system: MDA-MB-435
# [26] = system: MCF7
# [27] = system: OVCAR-3
# [28] = system: HL-60
# [29] = system: PC-3
# [30] = system: A498
# [31] = system: SF-295
# [32] = system: SR
# [33] = system: 786-0
# [34] = system: Hs-578T
# [35] = system: IGROV-1
# [36] = system: SK-MEL-2
# [37] = system: NCI-H23
# [38] = system: K562
# [39] = system: M14
# [40] = system: BT-549
# [41] = system: COLO 205
# [42] = system: SK-MEL-28
# [43] = system: UACC-257
# [44] = system: HT-29
# [45] = system: SK-MEL-5
# [46] = system: OVCAR-5
# [47] = system: LOX IMVI
# [48] = system: TK-10
# [49] = system: ACHN
# [50] = system: DU-145
# [51] = system: RXF 393
# [52] = system: UO-31
# [53] = system: Malme-3M
# [54] = system: NCI-H460
# [55] = system: HCC 2998
# [56] = system: SF-539
# [57] = system: CCRF-CEM
# [58] = system: SNB-75
smiles,measurement,setting,value
CC(C)CC1c2[nH]c3ccccc3c2C[C@H]2C(=O)NC(Cc3c[nH]c4ccccc34)C(=O)N12 (stereo partly specified),GI50,[1],15.8 µM (inactive)
same,GI50,[2],6.61 µM (inactive)
same,GI50,[3],13.9 µM (inactive)
same,GI50,[4],11.2 µM (inactive)
same,GI50,[5],16.5 µM (inactive)
same,GI50,[6],18 µM (inactive)
same,GI50,[7],15.9 µM (inactive)
same,GI50,[8],13.2 µM (inactive)
same,GI50,[9],20.6 µM (inactive)
same,GI50,[10],16 µM (inactive)
same,GI50,[11],16.8 µM (inactive)
same,GI50,[12],13.4 µM (inactive)
same,GI50,[13],23.7 µM (inactive)
same,GI50,[14],14.6 µM
same,GI50,[15],11.5 µM (inactive)
same,GI50,[16],18 µM (inactive)
same,GI50,[17],13.7 µM (inactive)
same,GI50,[18],26.9 µM (inactive)
same,GI50,[19],15.9 µM (inactive)
same,GI50,[20],16 µM (inactive)
same,GI50,[21],12.2 µM (inactive)
same,GI50,[22],12.5 µM (inactive)
same,GI50,[23],18.1 µM (inactive)
same,GI50,[24],20.3 µM (inactive)
same,GI50,[25],16 µM (inactive)
same,GI50,[26],14.8 µM (inactive)
same,GI50,[27],7.74 µM (inactive)
same,GI50,[28],11.8 µM (inactive)
same,GI50,[29],11.1 µM (inactive)
same,GI50,[30],16.8 µM (inactive)
same,GI50,[31],20.4 µM (inactive)
same,GI50,[32],14 µM (inactive)
same,GI50,[33],17.5 µM (inactive)
same,GI50,[34],7.11 µM (inactive)
same,GI50,[35],15.5 µM (inactive)
same,GI50,[36],16 µM (inactive)
same,GI50,[37],17.7 µM (inactive)
same,GI50,[38],11.5 µM (inactive)
same,GI50,[39],14.1 µM (inactive)
same,GI50,[40],16.9 µM (inactive)
same,GI50,[41],17.8 µM (inactive)
same,GI50,[42],17.3 µM (inactive)
same,GI50,[43],14.3 µM (inactive)
same,GI50,[44],14.9 µM (inactive)
same,GI50,[45],12.7 µM (inactive)
same,GI50,[46],24.7 µM (inactive)
same,GI50,[47],14.2 µM (inactive)
same,GI50,[48],4.93 µM (inactive)
same,GI50,[49],17.8 µM (inactive)
same,GI50,[50],20.3 µM (inactive)
same,GI50,[51],7.87 µM (inactive)
same,GI50,[52],14.3 µM (inactive)
same,GI50,[53],14.6 µM (inactive)
COC1=C(OC)C(=O)C(Sc2ccc3ccccc3c2)=CC1=O,GI50,[1],3.67 µM (inactive)
same,GI50,[2],5.58 µM (inactive)
same,GI50,[3],0.678 µM (active)
same,GI50,[4],4.58 µM (inactive)
same,GI50,[5],16.1 µM (inactive)
same,GI50,[6],9.86 µM (inactive)
same,GI50,[7],10.4 µM (inactive)
same,GI50,[8],1.68 µM (inactive)
same,GI50,[9],13.2 µM (inactive)
same,GI50,[10],11.9 µM (inactive)
same,GI50,[11],14.1 µM (inactive)
same,GI50,[12],5.86 µM (inactive)
same,GI50,[13],14.7 µM (inactive)
same,GI50,[14],9.68 µM
same,GI50,[15],1.82 µM (inactive)
same,GI50,[16],14.7 µM (inactive)
same,GI50,[17],19 µM (inactive)
same,GI50,[18],6.03 µM (inactive)
same,GI50,[19],7.87 µM (inactive)
same,GI50,[20],7.64 µM (inactive)
same,GI50,[21],4.89 µM (inactive)
same,GI50,[22],12 µM (inactive)
same,GI50,[54],7.67 µM (inactive)
same,GI50,[23],3.5 µM (inactive)
same,GI50,[24],11.4 µM (inactive)
same,GI50,[25],4.25 µM (inactive)
same,GI50,[26],4.25 µM (inactive)
same,GI50,[27],4.63 µM (inactive)
same,GI50,[55],11.6 µM (inactive)
same,GI50,[28],0.716 µM (active)
same,GI50,[29],10 µM (inactive)
same,GI50,[30],14.7 µM (inactive)
same,GI50,[31],9.42 µM (inactive)
same,GI50,[32],2.09 µM (inactive)
same,GI50,[56],13.5 µM (inactive)
same,GI50,[33],3.72 µM (inactive)
same,GI50,[34],14.9 µM (inactive)
same,GI50,[35],12.4 µM (inactive)
same,GI50,[36],13.6 µM (inactive)
same,GI50,[37],11.2 µM (inactive)
same,GI50,[38],2.99 µM (inactive)
same,GI50,[39],4.35 µM (inactive)
same,GI50,[40],9.2 µM (inactive)
same,GI50,[41],7.24 µM (inactive)
same,GI50,[42],16.3 µM (inactive)
same,GI50,[43],7.69 µM (inactive)
same,GI50,[44],14.7 µM (inactive)
same,GI50,[45],3.1 µM (inactive)
same,GI50,[46],15.6 µM (inactive)
same,GI50,[47],3.54 µM (inactive)
same,GI50,[57],1.29 µM (inactive)
same,GI50,[48],12.2 µM (inactive)
same,GI50,[58],12.8 µM (inactive)
same,GI50,[49],8.28 µM (inactive)
same,GI50,[50],14.5 µM (inactive)
same,GI50,[51],6.85 µM (inactive)
same,GI50,[52],6.11 µM (inactive)
same,GI50,[53],11.9 µM (inactive)
